# Experimental data reported in patent US7795226B2, “Control of radiation injury” (Biotempt B.V., priority 2006, dated 2010).
# Test system: C57B1/6 mice after Whole Body Irradiation
# Assay: Whole Body Irradiation 8.6 Gy, treatment from three hours after WBI
# Type: in vivo
# Experimental: “WBI” stands for Whole Body Irradiation. Radiation damage protection in vivo was assessed after WBI (6.5 to 9.8 Gy, Philips MG 30 at 81 cGy/min) on anesthetized C57B1/6 mice, and survival differences were measured by Kaplan-Meirer analysis. All groups of mice got the first injection with peptide or vehicle (control animals) three hours after the WBI. The group that got a placebo injection experienced 80% mortality, as predicted in this model. The dose of radiation of 8.6 Gray (=8.6 Gy) is known, in this species, to cause about an 80% mortality, so it is called the LD80 (lethal dose for 80%). The deaths started around Day 10, which is typical for what happens in WBI to animals or humans. By around Day 10, the gut lining is so damaged and leaky from the radiation that bacteria get into the circulation and cause gastrointestinal syndrome, and the bone marrow is so damaged that there is an insufficient number of white blood cells to fight the infection (“Bone Marrow Syndrome”), and death ensues. The group with “x” as the symbol got the first injection IV, and the second injection subcutaneously (SC) three hours after that first injection. 100% of these animals survived. […] To an outside observer, they would look like perfectly normal mice. The group with the triangle symbol got its first injection of the peptide via the SC route. Then it got additional SC injections every 48 hours, for a total of three doses (in addition to the first dose), meaning, on Day 3, Day 5, and Day 7. […] The group with the square symbol was identical in procedures to the group with the triangle symbol, except that the 48 hour SC injections continued on until a total of six doses had been injected (in addition to the first dose). So the dosing continued on until Day 13. […] When the animals got lower-level treatment (SC only), if the treatment was prolonged until the second week, here again, there was complete protection.
# The group that got a placebo injection experienced 80% mortality, as predicted in this model. The dose of radiation given (8.6 Gray =8.6 Gy) is known, in this species, to cause about an 80% mortality, so it is called the LD80 (lethal dose for 80%). The deaths starting around Day 10, which is typical for what happens in WBI to animals or humans. By around Day 10, the gut lining is so damaged and leaky from the radiation that bacteria get into the circulation and cause sepsis because of Gastrointestinal (GI) Syndrome, and the bone marrow is so damaged that there is an insufficient number of white blood cells to fight the infection (“Bone Marrow Syndrome”), and death ensues.
# A first group of peptide-treated mice (group with “x” as the symbol in FIG. 1) got the first injection with AQGV (SEO ID NO:120) IV, and the second injection subcutaneously (SC) three hours after that first injection.
# A second group of mice got its first injection of the peptide via the SC route. Then it got additional SC injections every 48 hours, for a total of three doses (in addition to the first dose), meaning, on Day 3, Day 5, and Day 7.
# The third group of mice was identical in procedures to the group with the second group, except that the q48 hour SC injections continued on until a total of six doses had been injected (in addition to the first dose). So the dosing continued on until Day 13.
# [1] = first SC injection three hours after WBI, then SC every 48 hours, six additional doses
# [2] = first injection IV three hours after WBI, second SC three hours later
substance,measurement,setting,value
AQGV,mortality after WBI (in words),[1],no mortality whatsoever
same,signs of sickness after WBI (in words),[1],showed no signs of sickness
same,mortality after WBI (in words),"first SC injection three hours after WBI, then SC every 48 hours, three additional doses",only one of these animals died
same,signs of sickness after WBI (in words),[2],did not show any signs of sickness at all
same,survival after WBI,[2],100%
